Read-outs that look alike come from different tables or passages of the source.
How the values were obtained:
[1] = tested on: cells expressing oncogenic H-Ras; conditions: NIH probe report, cited from earlier work
DLD-1 cells = assay: Cell growth inhibition (CellTiter-Glo), DLD-1 colorectal cells; format: cell-based, human; conditions: known Ras pathway inhibitors, 384-well plates, Table 4
HT-29 colon cancer cells = assay: Cell growth inhibition (CellTiter-Glo ATP assay), HT-29 cells with wild-type Ras; format: cell-based, human
Experimental: (§1) This example illustrates cell growth assays employed in the present invention.
(§2) Normal rat kidney (NRK) and Ki-Ras transformed NRK cells (K-NRK) were obtained from ATCC, and were cultured according to supplier recommendations. CellTiter-Glo ATP cell growth assay reagents were obtained from Promega and used according to the manufacturer's protocol. Inhibitors of EGFR, Raf, and MEK were obtained from Selleck Chemicals. Cells were plated at a density of 5,000 cells per well in 96-well microplates or 1,250 cells per well in 384-well plates, and allowed to attach for at least 4 h. Test compounds were dissolved in dimethyl sulfoxide (DMSO), and this working stock was further diluted in growth medium for addition to cell cultures. Serial dilutions of the test compound were prepared in growth medium containing an equal amount of DMSO not exceeding 0.2% final concentration. Each compound concentration was tested in at least 3 separate samples per cell line. At the end of a 3-day treatment period, growth inhibition was analyzed using a bioluminescent assay of ATP concentration (Promega CellTiter-Glo) according to the manufacturer's protocol. Resulting luminescence was measured using the luminescence cartridge of the Molecular Devices Spectramax Paradigm microplate reader. Relative growth inhibition for each sample was determined by comparison with the values obtained for vehicle treated control samples. Growth inhibition values were plotted with the GraphPad Prism5 software using the 4-parameter logistic fit to obtain IC50 values, which corresponds to the growth inhibitory potency of the compound.
(§3) This example illustrates effects of exemplary compounds of the present invention on cancer cells having activated or mutated Ras compared to wild-type (WT) Ras. […] A549 lung cancer cells, which harbor a mutation in the K-Ras oncogene were treated for three days with the compounds.
(§4) Cells were seeded in 384-well plates and allowed to attach. Ten-fold serial dilutions of compounds were tested. Each compound concentration was tested in at least 3 separate samples per cell line.

Caco-2 cells = assay: Cell growth inhibition (CellTiter-Glo), Caco-2 colorectal cells with wild-type Ras; format: cell-based, human; conditions: 384-well plates
SW-480 cells = assay: Cell growth inhibition (CellTiter-Glo), SW-480 colorectal cells with activated Ras; format: cell-based, human; conditions: for IC50: 384-well plates; for Selectivity Caco-2/SW-480: ratio IC50 Caco-2 (WT Ras) / IC50 SW-480 (Ras activated)
Experimental: as §1, §2
The growth inhibitory activity of the compounds was tested using the CellTiter-Glo assay. Cells were seeded in 384-well plates and allowed to attach, then ten-fold serial dilutions of compounds were tested. Each concentration was tested in at least 3 separate samples per cell line.
as §4

[2] = tested on: panel of colorectal cancer cell lines; assay: Growth inhibition of known Ras pathway inhibitors across the colorectal cell line panel, pattern versus Ras activation; format: cell-based, human; conditions: HCT-116, DLD-1, SW-480, Caco-2, HT-29, COLO-205 panel
Experimental: This example illustrates non-selective growth inhibition with known Ras pathway inhibitors which are not compounds of the present invention. In particular, the growth inhibitory activity of commercially available compounds which are active in the Ras signal transduction pathway were tested in the same panel of cell lines using the CellTiter-Glo assay. Cells were seeded in 384-well plates and allowed to attach. Ten-fold serial dilutions of compounds were tested. Each compound concentration was tested in at least 3 separate samples per cell line.

[3] = tested on: HCT-116 colon tumor cells; assay: Cell growth inhibition (CellTiter-Glo), HCT-116 colon tumor cells expressing mutant Ras; format: cell-based, human; conditions: for HT-29/HCT-116 selectivity values: ratio IC50 HT-29 (WT Ras) / IC50 HCT-116 (mutant Ras), 5000 cells/well, 96-well plates
Experimental: This example illustrates cell growth assays employed in the present invention. […] Normal rat kidney (NRK) and Ki-Ras transformed NRK cells (K-NRK) were obtained from ATCC, and were cultured according to supplier recommendations. CellTiter-Glo ATP cell growth assay reagents were obtained from Promega and used according to the manufacturer's protocol. Inhibitors of EGFR, Raf, and MEK were obtained from Selleck Chemicals. Cells were plated at a density of 5,000 cells per well in 96-well microplates or 1,250 cells per well in 384-well plates, and allowed to attach for at least 4 h. Test compounds were dissolved in dimethyl sulfoxide (DMSO), and this working stock was further diluted in growth medium for addition to cell cultures. Serial dilutions of the test compound were prepared in growth medium containing an equal amount of DMSO not exceeding 0.2% final concentration. Each compound concentration was tested in at least 3 separate samples per cell line. At the end of a 3-day treatment period, growth inhibition was analyzed using a bioluminescent assay of ATP concentration (Promega CellTiter-Glo) according to the manufacturer's protocol. Resulting luminescence was measured using the luminescence cartridge of the Molecular Devices Spectramax Paradigm microplate reader. Relative growth inhibition for each sample was determined by comparison with the values obtained for vehicle treated control samples. […] This example illustrates use of well-established human colon tumor cell lines with widely divergent Ras activation status to determine selectivity values for exemplary compounds of the present invention. […] Cells were plated at 5000 cells/well in 96-well plates, and viable cell numbers were measured using the Cell Titer Glo ATP luminescence assay (Promega). […] Cells were seeded in 384-well plates and allowed to attach. Ten-fold serial dilutions of compounds were tested. Each compound concentration was tested in at least 3 separate samples per cell line.

COLO-205 cells = assay: Cell growth inhibition (CellTiter-Glo), COLO-205 colorectal cells; format: cell-based, human; conditions: known Ras pathway inhibitors, 384-well plates, Table 4
A549 lung cancer cells = assay: Cell growth inhibition (CellTiter-Glo ATP assay), A549 cells with mutant K-Ras; format: cell-based, human; conditions: for IC50: Homo sapiens, A549, 72 h, growth inhibition, three days treatment, K-Ras mutant lung cancer cells, read-out: A549 (Ras-activated) IC50; for Selectivity HT-29/A549: ratio IC50 HT-29 (WT Ras) / IC50 A549 (Ras-activated)
Experimental: This example illustrates cell growth assays employed in the present invention. Cells used in such assays included A-549, HT-29, MDA-MB-231, Colo-205, Caco2, HCT-116, SW-480, and DLD-1 human cancer cells obtained from the American Type Culture Collection (ATCC).
as §2, with “Human tumor cells were cultured using standard methods in RPMI-1640 growth medium supplemented with 5% fetal bovine serum (FBS). Normal” for “Normal”
as §3

[4] = Homo sapiens, HT-29, growth inhibition, colon cancer cells with wild-type Ras, Table 2, read-out: HT-29 (WT Ras) IC50
[5] = Homo sapiens, Caco-2, growth inhibition, Table 3, read-out: Caco-2 (WT Ras) IC50
[6] = Homo sapiens, SW480, growth inhibition, Table 3, read-out: SW-480 (Ras Activated IC50)

Row | IC50 (HT-29 colon cancer cells; [4]) | IC50 (Caco-2 cells; [5]) | IC50 (SW-480 cells; [6]) | IC50 (A549 lung cancer cells) | Structure (SMILES) | Selectivity Caco-2/SW-480 (SW-480 cells) | HT-29/HCT-116 selectivity values [3] | Selectivity HT-29/A549 (A549 lung cancer cells) | also measured
1 | – | – | – | – | Cc1onc(C(=O)N2CCN(C(c3ccc(Cl)cc3)c3ccc(Cl)cc3)CC2)c1[N+](=O)[O-] [ML210] | – | – | – | selectivity versus cells lacking oncogenic Ras [1]: 4 fold; IC50 ([1]; read-out: IC50, growth of cells expressing mutant Ras): 0.071 µM
2 | – | – | – | – | Cn1cnc2c(F)c(Nc3ccc(Br)cc3Cl)c(C(=O)NOCCO)cc21 [Selumetinib] | – | – | – | IC50 (DLD-1 cells; Homo sapiens, DLD-1): 20.4 µM
3 | – | – | – | – | O=C1Nc2ccc(I)cc2/C1=C/c1cc(Br)c(O)c(Br)c1 [GW5074, reference compound] | – | – | – | IC50 (HT-29 colon cancer cells; known Ras pathway inhibitors, 384-well plates, Table 4, read-out: HT-29 IC50): 19.1 µM; IC50 (Caco-2 cells; known Ras pathway inhibitors, Table 4, read-out: Caco-2 IC50): > 20 µM; IC50 (SW-480 cells; known Ras pathway inhibitors, Table 4, read-out: SW-480 IC50): 8.07 µM; selectivity with regard to Ras activation [2]: did not show selectivity; IC50 ([3]; known Ras pathway inhibitors, 384-well plates, Table 4): 15.8 µM; IC50 (COLO-205 cells): 7.1 µM; IC50 (DLD-1 cells): 7.75 µM
4 | 0.28 µM | 0.00197 µM | 0.00037 µM | 0.00086 µM | COc1cc(/C=C2/C(C)=C(CC(=O)NCc3ccco3)c3cc(F)ccc32)cc(OC)c1O [Compound 007, (Z)-2-(5-fluoro-1-(4-hydroxy-3,5-dimethoxybenzylidene)-2-methyl-1H-inden-3-yl)-N-(furan-2-ylmethyl)acetamide] | 5 | 92 | 326 | –
5 | 8.13 µM | 0.428 µM | 0.00285 µM | 0.011 µM | COc1ccc2c(c1)C(CC(=O)NCc1ccco1)=C(C)/C2=C/c1cc(OC)c(O)c(OC)c1 [Compound 006, (Z)—N-(furan-2-ylmethyl)-2-(1-(4-hydroxy-3,5-dimethoxybenzylidene)-5-methoxy-2-methyl-1H-inden-3-yl)acetamide] | 150 | 43 | 739 | –
6 | 0.712 µM | 0.0338 µM | 0.0021 µM | 0.17 µM | COc1cc(/C=C2/C(C)=C(CC(=O)NCc3ccccn3)c3cc(F)ccc32)cc(OC)c1O [Compound 010, (Z)-2-(5-fluoro-1-(4-hydroxy-3,5-dimethoxybenzylidene)-2-methyl-1H-inden-3-yl)-N-(pyridin-2-ylmethyl)acetamide] | 16 | 141 | 4 | –
7 | 2.94 µM | 0.0476 µM | 0.0213 µM | 0.015 µM | COc1cc(/C=C2/C(C)=C(CC(=O)NCc3cccnc3)c3cc(F)ccc32)cc(OC)c1O [Compound 011, (Z)-2-(5-fluoro-1-(4-hydroxy-3,5-dimethoxybenzylidene)-2-methyl-1H-inden-3-yl)-N-(pyridin-3-ylmethyl)acetamide] | 2 | 168 | 196 | –

— patent US9931315B2, “Method of selectively inhibiting Ras-mediated tumor growth in humans” (ADT PHARMACEUTICALS, INC., priority 2014, dated 2018)
